Source: patent US9169279B2, “Crystallization method and bioavailability” (THAR PHARMACEUTICALS, INC., priority 2009, dated 2015)

Legend:
[1] = room temperature
[2] = Dog PK study: zoledronic acid in serum after IV or oral capsule dosing, enteric or non-enteric coated, with or without excess coformer (LC/MS/MS); format: in vivo, Beagle dogs; settings: beagle, po, 56 mg, Leg 7, 56.0 mg, enteric coated capsule, PO, read-out: Average serum concentration of 5 dogs
Description: This can be attributed to the fact that both animals have historically been used in the safety evaluation and PK screening studies and are recommended by appropriate regulatory agencies. […] Additional tests included ID administration in rats and administration of enteric coated capsules in dogs.
USA. Some animals have surgical catheters (jugular vein and intraduodenum) were implanted to the animals prior to the studies. Beagle dogs from Marshall Farms, N.Y., USA, weighing from (9-12 kg) were used in the studies presented herein. Surgical catheters (jugular vein) were implanted prior to the studies.
The dose volume of each dog was adjusted based upon the average weight of the dog. • ii. […]
Blood samples were placed without the use of an anticoagulant and allowed to sit at room temperature for approximately 30 minutes. Samples were then centrifuged at a temperature of 4° C., at a speed of 13,000 rpm, for 5 minutes. Serum was collected and split into two aliquots and stored frozen (−80° C.) until analysis.
In this study, capsules of particulate materials (zoledronic:DL-lysine:water complex and excess pure DL-lysine).

O.O=P(O)(O)C(O)(Cn1ccnc1)P(=O)(O)O [ZA monohydrate]
Aqueous solubility, Conc. mg/mL [1]: 1.57 mg/mL

NCCCCC(N)C(=O)O.O.O.O=P(O)(O)C(O)(Cn1ccnc1)P(=O)(O)O [ZA: DL-Lysine dihydrate]
Aqueous solubility, Conc. mg/mL [1]: 6.85 mg/mL

NCCCCC(N)C(=O)O.O.O=P(O)(O)C(O)(Cn1ccnc1)P(=O)(O)O [ZA: DL-Lysine monohydrate]
Aqueous solubility, Conc. mg/mL [1]: 13.9 mg/mL

NCCCC[C@H](N)C(=O)O.O.O.O=P(O)(O)C(O)(Cn1ccnc1)P(=O)(O)O [ZA: L-Lysine dihydrate]
Aqueous solubility, Conc. mg/mL [1]: 8.22 mg/mL

O=P(O)(O)C(O)(Cn1ccnc1)P(=O)(O)O [Zoledronic acid monohydrate]
concentration at 0 h ([2]; 0 h): 0 ng/mL | concentration at 10 min ([2]; 10 min): 0 ng/mL | concentration at 0.25 h ([2]; 0.25 h): 0 ng/mL | concentration at 0.5 h ([2]; 0.5 h): 0 ng/mL | concentration at 0.75 h ([2]; 0.75 h): 0 ng/mL | concentration at 1 h ([2]; 1 h): 9.84 ng/mL | concentration at 1.5 h ([2]; 1.5 h): 86.1 ng/mL | concentration at 2 h ([2]; 2 h): 109 ng/mL | concentration at 4 h ([2]; 4 h): 108 ng/mL | concentration at 6 h ([2]; 6 h): 14.2 ng/mL | concentration at 8 h ([2]; 8 h): 4.57 ng/mL | concentration at 24 h ([2]; 24 h): 0.5 ng/mL
